In US6380244B2, “Nutritional and therapeutic uses of 3-hydroxyalkanoate oligomers” (Metabolix, Inc., priority 1998, dated 2002):

Assays:
[1] = Single oral bolus of triolide in a fasted dog, blood ketone bodies and glucose (Example 2); type: in vivo, mongrel dog
Experimental: A mongrel dog (21 kg) was fasted overnight and given an oral bolus of triolide (R,R,R)-4,8,12-trimethyl-1,5,9-trioxadodeca-2,6,10-trione, 10 g) in gelatin. This amount of triolide is equivalent to 5% of the daily caloric requirement. Blood was sampled at 0, 15, 30, 45, and 60 minutes and every half hour thereafter for a total of six hours.
The blood samples were analyzed for glucose via enzymatic assay, and for acetoacetate and 3-hydroxybutyrate via GC-mass spectrometry (GC-MS) assay. As shown by FIG. 1, within 90 minutes, the blood concentrations of 3-hydroxybutyrate and acetoacetate reached 0.3 and 0.05 mM, and the total ketone bodies in the blood were 0.36 mM. After the fourth hour, the total ketone body concentration remained elevated at 0.24 mM. Glucose concentration in the blood dropped from 6.5 mM to 5 mM during the experiment.

[2] = Repeated feeding of meat plus triolide to a fasted dog, blood ketone bodies, glucose, tolerability (Example 3); type: in vivo, mongrel dog
Experimental: A mongrel dog (25.5 kg) was fasted overnight and fed a mixture of meat (111 g) and triolide ((R,R,R)-4,8,12-trimethyl-1,5,9-trioxadodeca-2,6,10-trione, 23.5 g). This amount of triolide is equivalent to 10% of the daily caloric requirement. Identical amounts of meat and triolide were given at 0, 120, 360 and 540 minutes. Blood was sampled at regular intervals for 12 hours.
The blood samples were analyzed for acetoacetate and 3-hydroxybutyrate. Within 30 minutes, the concentrations of 3-hydroxybutyrate and acetoacetate reached 0.85 and 0.15 mM, respectively. The total ketone bodies in the blood were 1.0 mM. After the third feeding of triolide, total ketone body concentration remained elevated and steady at about 0.6 mM. Glucose concentration in the blood remained within the normal range of 3.1 to 5.9 mM. […] By the next morning, the ketone body concentration in the blood had returned to the normal value of 0.02 mM.

[3] = four feedings of 23.5 g triolide, throughout the experiment
[4] = meat + triolide 23.5 g, within 30 minutes

C[C@@H]1CC(=O)O[C@H](C)CC(=O)O[C@H](C)CC(=O)O1 [triolide, (R,R,R)-4,8,12-Trimethyl-1,5,9-Trioxadodeca-2,6,10-Trione]
blood concentration of 3-hydroxybutyrate ([1]; oral bolus 10 g triolide in gelatin (5% of daily caloric requirement), within 90 minutes, GC-MS): 300 µM | total ketone bodies in the blood ([1]; oral bolus 10 g triolide in gelatin, within 90 minutes): 0.36 mM | blood concentration of acetoacetate ([1]; oral bolus 10 g triolide in gelatin, within 90 minutes, GC-MS): 50 µM | total ketone body concentration ([1]; oral bolus 10 g triolide, after the fourth hour, remained elevated): 0.24 mM | total ketone body concentration ([2]; after the third feeding of triolide, elevated and steady): about 0.6 mM | ketone body concentration in the blood ([2]; by the next morning, returned to the normal value): 0.02 mM | other clinical chemistry profiles [2, 3]: remained normal | signs of distress, unusual behavior, abnormal bodily functions (diarrhea, nausea, vomiting, frequent urination) [2, 3]: no signs of distress | blood concentration of 3-hydroxybutyrate ([2]; meat 111 g + triolide 23.5 g (10% of daily caloric requirement) at 0, 120, 360, 540 min, within 30 minutes): 850 µM | blood concentration of acetoacetate [2, 4]: 150 µM | total ketone bodies in the blood [2, 4]: 1.0 mM
